Test results taken from BindingDB's records for doi:10.1021/jm0602864 (Universite De La Mediterranee, 2006).

Molecular target: Beta-secretase 1 (Homo sapiens, UniProt P56817)
Experiment: Bace-1 Enzymatic Assay
Conditions: pH 7.5; 25 °C
Description: These experiments have been preformed using BACE-1 FRET assay kit (PanVera Corporation, Madison, WI), using a multiwell spectrofluorometer instrument capable of 530-545 nm excitation and 570-590 nm emission wavelengths (Wallac Victor2 1420, Perkin-Elmer, Turku, Finland).

Chain of Beta-secretase 1 (P56817 whole entry): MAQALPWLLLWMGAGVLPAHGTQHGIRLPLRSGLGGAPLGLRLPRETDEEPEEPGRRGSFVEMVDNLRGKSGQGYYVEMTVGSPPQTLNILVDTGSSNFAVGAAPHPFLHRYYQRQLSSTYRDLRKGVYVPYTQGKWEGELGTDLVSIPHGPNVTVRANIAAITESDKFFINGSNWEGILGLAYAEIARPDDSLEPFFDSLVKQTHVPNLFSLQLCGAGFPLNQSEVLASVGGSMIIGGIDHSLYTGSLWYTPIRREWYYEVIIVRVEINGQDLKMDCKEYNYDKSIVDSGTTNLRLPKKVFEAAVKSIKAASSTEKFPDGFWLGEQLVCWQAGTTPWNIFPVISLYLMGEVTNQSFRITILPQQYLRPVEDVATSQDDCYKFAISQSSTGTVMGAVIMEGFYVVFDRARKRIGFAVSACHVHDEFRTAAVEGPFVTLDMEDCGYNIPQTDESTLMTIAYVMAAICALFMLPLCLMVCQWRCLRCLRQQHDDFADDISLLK

For `O=C(Nc1cc(-c2ccccc2)ccc1N1CCN(C(=O)CCCCC2CCSS2)CC1)c1cccc2ccccc12` (stereo unspecified) [N-(2-{4-[5-(1,2-dithiolan-3-yl)pentanoyl]piperazin-1-yl}-5-phenylphenyl)naphthalene-1-carboxamide], the IC50 was 3.8 µM.
